For 6 molecules, IC50 results are on record in patent publication US20230022157A1 (Achillion Pharmaceuticals, Inc., priority 2018, published 2023).

Where a name gives a salt, the structure may show the parent alone. A value given as a limit tells only on which side of the number the result lay.

The target in the assay is T1, Human Factor D (Homo sapiens, UniProt P00746).
T1 construct: purified from human serum; purchased Complement Technology, Inc; host or cells: human serum (natural protein, not recombinant)
T1 sequence (P00746 26-253): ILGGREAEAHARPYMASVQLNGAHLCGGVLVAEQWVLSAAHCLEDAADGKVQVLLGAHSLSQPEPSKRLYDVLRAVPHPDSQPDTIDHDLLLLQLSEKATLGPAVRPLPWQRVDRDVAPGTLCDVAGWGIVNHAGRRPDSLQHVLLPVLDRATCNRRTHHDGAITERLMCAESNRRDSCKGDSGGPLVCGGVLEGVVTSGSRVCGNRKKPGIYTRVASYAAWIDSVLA
Briefly: Human Factor D Assay. Type of assay: biochemical. To be noted: Human Factor D 80 nM, substrate Z-L-Lys-SBzl; Table 2; read-out: IC50 (Stars). In short, it runs like this: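 Serum-purified human factor D (80 nM final) preincubated 5 min at room temperature with test compound in 50 mM Tris, 1M NaCl, pH 7.5. Z-L-Lys-SBzl substrate and DTNB then added, each at 100 μM final. IC50 from nonlinear regression of reaction rate against compound concentration.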

For the molecule `CC(=O)c1nn(CC(=O)N2C[C@@H](C(C)(C)N)C[C@H]2C(=O)Nc2nc(C(F)(F)F)ccc2C)c2c(C)cc(-c3cnc(C)nc3)cc12` [Compound 56, (2S,4S)-1-(2-(3-acetyl-7-methyl-5-(2-methylpyrimidin-5-yl)-1H-indazol-1-yl)acetyl)-4-(2-aminopropan-2-yl)-N-(3-methyl-6-(trifluoromethyl)pyridin-2-yl)pyrrolidine-2-carboxamide hydrochloride], the IC50 is below 1000 nM.

In the case of `CC(=O)c1cn(CC(=O)N2[C@H](C(=O)Nc3nc(C(F)(F)F)ccc3C)C[C@@]3(C)C[C@@H]23)c2c(C)cc(-c3cnc4cc(F)nn4c3)cc12` [Compound 225, (1R,3S,5R)-2-(2-(3-acetyl-5-(2-fluoropyrazolo[1,5-a]pyrimidin-6-yl)-7-methyl-1H-indol-1-yl)acetyl)-5-methyl-N-(3-methyl-6-(trifluoromethyl)pyridin-2-yl)-2-azabicyclo[3.1.0]hexane-3-carboxamide], the IC50 is below 1000 nM.

For the molecule `CC(=O)c1nn(CC(=O)N2[C@H](C(=O)N[C@@H](c3ccccc3)C(F)(F)F)C[C@@]3(C)C[C@@H]23)c2c(C)cc(-c3cnc(C)nc3)cc12` [Compound 85, (1R,3S,5R)-2-{2-[3-acetyl-7-methyl-5-(2-methylpyrimidin-5-yl)indazol-1-yl]acetyl}-5-methyl-N-[(1S)-2,2,2-trifluoro-1-phenylethyl]-2-azabicyclo[3.1.0]hexane-3-carboxamide], the IC50 was below 1000 nM.

On to `COc1cc(Br)nc(NC(=O)[C@@H]2C[C@@]3(C)C[C@H]3N2C(=O)Cn2nc(C(C)=O)c3cc(-c4cnc(CO)nc4)ccc32)c1` [Compound 67, (1R,3S,5R)-2-(2-(3-acetyl-5-(2-(hydroxymethyl)pyrimidin-5-yl)-1H-indazol-1-yl)acetyl)-N-(6-bromo-4-methoxypyridin-2-yl)-5-methyl-2-azabicyclo[3.1.0]hexane-3-carboxamide], for which the IC50 was below 1000 nM.

As for `CC(=O)c1cn(CC(=O)N2[C@H](C(=O)Nc3nc(Br)ccc3C)C[C@@]3(C)C[C@@H]23)c2c(C)cc(-c3cnc(CO)nc3)cc12` [Compound 62, (1R,3S,5R)-2-(2-(3-acetyl-5-(2-(hydroxymethyl)pyrimidin-5-yl)-7-methyl-11H-indol-1-yl)acetyl)-N-(6-bromo-3-methylpyridin-2-yl)-5-methyl-2-azabicyclo[3.1.0]hexane-3-carboxamide], the IC50 was below 1000 nM.

As for `CC(=O)c1cn(CC(=O)N2C[C@H]3C[C@H]3[C@H]2C(=O)Nc2nc(Br)c(F)cc2C)c2c(C)cc(-c3cnc(CO)nc3)cc12` [Compound 83, (1R,2S,5S)-3-(2-(3-acetyl-5-(2-(hydroxymethyl)pyrimidin-5-yl)-7-methyl-11H-indol-1-yl)acetyl)-N-(6-bromo-5-fluoro-3-methylpyridin-2-yl)-3-azabicyclo[3.1.0]hexane-2-carboxamide], the IC50 was below 1000 nM.

One may read the IC50 as the concentration that gives 50% inhibition.
